Laboratory results from PubChem BioAssay (NCI).
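Tested at 5 concentrations; 48 h exposure; 96-well plates; endpoints linearly interpolated, else capped at highest concentration. GI50 marks 50% less growth. Definition used: TGI = concentration required for complete inhibition of growth.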

How the values were obtained:
Assay in all cases: growth of human tumour cells (NCI), 48 h
786-0 renal = system: 786-0 renal
A549 NSCLC = system: A549 NSCLC
ACHN renal = system: ACHN renal
BT-549 breast = system: BT-549 breast
CAKI-1 renal = system: CAKI-1 renal
COLO 205 colon = system: COLO 205 colon
DU-145 prostate = system: DU-145 prostate
EKVX NSCLC = system: EKVX NSCLC
HCC-2998 colon = system: HCC-2998 colon
HCT-116 colon = system: HCT-116 colon
HCT-15 colon = system: HCT-15 colon
HL-60(TB) leukemia = system: HL-60(TB) leukemia
HOP-62 NSCLC = system: HOP-62 NSCLC
HOP-92 NSCLC = system: HOP-92 NSCLC
HS 578T breast = system: HS 578T breast
K-562 leukemia = system: K-562 leukemia
KM12 colon = system: KM12 colon
LOX IMVI melanoma = system: LOX IMVI melanoma
M14 melanoma = system: M14 melanoma
MCF7 breast = system: MCF7 breast
MDA-MB-231 breast = system: MDA-MB-231 breast
MDA-MB-435 = system: MDA-MB-435
NCI-H460 lung = system: NCI-H460 lung
NCI-H522 lung = system: NCI-H522 lung
NCI/ADR-RES ovarian = system: NCI/ADR-RES ovarian
OVCAR-3 ovarian = system: OVCAR-3 ovarian
OVCAR-4 ovarian = system: OVCAR-4 ovarian
OVCAR-5 ovarian = system: OVCAR-5 ovarian
OVCAR-8 ovarian = system: OVCAR-8 ovarian
PC-3 prostate = system: PC-3 prostate
RPMI-8226 leukemia = system: RPMI-8226 leukemia
SF-268 CNS = system: SF-268 CNS
SF-295 CNS = system: SF-295 CNS
SF-539 CNS = system: SF-539 CNS
SK-MEL-2 melanoma = system: SK-MEL-2 melanoma
SK-MEL-28 melanoma = system: SK-MEL-28 melanoma
SK-MEL-5 melanoma = system: SK-MEL-5 melanoma
SK-OV-3 ovarian = system: SK-OV-3 ovarian
SN12C renal = system: SN12C renal
SNB-19 CNS = system: SNB-19 CNS
SR leukemia = system: SR leukemia
SW-620 colon = system: SW-620 colon
T-47D breast = system: T-47D breast
TK-10 renal = system: TK-10 renal
U251 CNS = system: U251 CNS
UACC-257 melanoma = system: UACC-257 melanoma
UACC-62 melanoma = system: UACC-62 melanoma
UO-31 renal = system: UO-31 renal
A498 renal = system: A498 renal
CCRF-CEM leukemia = system: CCRF-CEM leukemia
HT29 colon = system: HT29 colon
IGROV1 ovarian = system: IGROV1 ovarian
MOLT-4 leukemia = system: MOLT-4 leukemia
NCI-H226 lung = system: NCI-H226 lung
NCI-H23 lung = system: NCI-H23 lung
RXF 393 renal = system: RXF 393 renal
SNB-75 CNS = system: SNB-75 CNS

Oc1cccc(Nc2nc3ccccc3c3occc23)c1
GI50 (786-0 renal): 9.73 µM
TGI (786-0 renal): 21.4 µM
GI50 (A549 NSCLC): 10.9 µM
TGI (A549 NSCLC): 22.8 µM
GI50 (ACHN renal): 7.69 µM
TGI (ACHN renal): 21.4 µM
GI50 (BT-549 breast): 14.2 µM
TGI (BT-549 breast): 27.2 µM
GI50 (CAKI-1 renal): 2.04 µM
TGI (CAKI-1 renal): 6.65 µM
GI50 (COLO 205 colon): 13.8 µM
TGI (COLO 205 colon): 26.7 µM
GI50 (DU-145 prostate): 12.2 µM
TGI (DU-145 prostate): 24.6 µM
GI50 (EKVX NSCLC): 14.6 µM
TGI (EKVX NSCLC): 28.5 µM
GI50 (HCC-2998 colon): 2.67 µM
TGI (HCC-2998 colon): 11.3 µM
GI50 (HCT-116 colon): 17.3 µM
TGI (HCT-116 colon): 31.1 µM
GI50 (HCT-15 colon): 15 µM
TGI (HCT-15 colon): 33.8 µM
GI50 (HL-60(TB) leukemia): 5.22 µM
TGI (HL-60(TB) leukemia): 61.7 µM
GI50 (HOP-62 NSCLC): 15.1 µM
TGI (HOP-62 NSCLC): 33.5 µM
GI50 (HOP-92 NSCLC): 9.07 µM
TGI (HOP-92 NSCLC): 21.3 µM
GI50 (HS 578T breast): 13.9 µM
TGI (HS 578T breast): 31.4 µM
GI50 (K-562 leukemia): 4.81 µM
TGI (K-562 leukemia): 55.8 µM
GI50 (KM12 colon): 3.24 µM
TGI (KM12 colon): 13 µM
GI50 (LOX IMVI melanoma): 3.25 µM
TGI (LOX IMVI melanoma): 22.4 µM
GI50 (M14 melanoma): 14.9 µM
TGI (M14 melanoma): 28.2 µM
GI50 (MCF7 breast): 7.4 µM
TGI (MCF7 breast): 21 µM
GI50 (MDA-MB-231 breast): 11.5 µM
TGI (MDA-MB-231 breast): 27 µM
GI50 (MDA-MB-435): 3.04 µM
TGI (MDA-MB-435): 14.8 µM
GI50 (NCI-H460 lung): 6.13 µM
TGI (NCI-H460 lung): 20.2 µM
GI50 (NCI-H522 lung): 14.5 µM
TGI (NCI-H522 lung): 28.8 µM
GI50 (NCI/ADR-RES ovarian): 11.3 µM
TGI (NCI/ADR-RES ovarian): 23.4 µM
GI50 (OVCAR-3 ovarian): 2.09 µM
TGI (OVCAR-3 ovarian): 12.9 µM
GI50 (OVCAR-4 ovarian): 3.8 µM
TGI (OVCAR-4 ovarian): 22.1 µM
GI50 (OVCAR-5 ovarian): 12.7 µM
TGI (OVCAR-5 ovarian): 25.3 µM
GI50 (OVCAR-8 ovarian): 13 µM
TGI (OVCAR-8 ovarian): 30.5 µM
GI50 (PC-3 prostate): 8.59 µM
TGI (PC-3 prostate): 21 µM
GI50 (RPMI-8226 leukemia): 4.98 µM
TGI (RPMI-8226 leukemia): 18.2 µM
GI50 (SF-268 CNS): 4.39 µM
TGI (SF-268 CNS): 17.5 µM
GI50 (SF-295 CNS): 2.34 µM
TGI (SF-295 CNS): 11.7 µM
GI50 (SF-539 CNS): 16.1 µM
TGI (SF-539 CNS): 29.6 µM
GI50 (SK-MEL-2 melanoma): 13.2 µM
TGI (SK-MEL-2 melanoma): 27.7 µM
GI50 (SK-MEL-28 melanoma): 0.364 µM
TGI (SK-MEL-28 melanoma): 12.5 µM
GI50 (SK-MEL-5 melanoma): 14 µM
TGI (SK-MEL-5 melanoma): 27 µM
GI50 (SK-OV-3 ovarian): 11.7 µM
TGI (SK-OV-3 ovarian): 23.9 µM
GI50 (SN12C renal): 13.2 µM
TGI (SN12C renal): 25.9 µM
GI50 (SNB-19 CNS): 10.5 µM
TGI (SNB-19 CNS): 22.2 µM
GI50 (SR leukemia): 1.38 µM
TGI (SR leukemia): 18.8 µM
GI50 (SW-620 colon): 17.1 µM
TGI (SW-620 colon): 30.8 µM
TGI (T-47D breast): 21.2 µM
GI50 (TK-10 renal): 5.21 µM
TGI (TK-10 renal): 12.2 µM
GI50 (U251 CNS): 14 µM
TGI (U251 CNS): 27.2 µM
GI50 (UACC-257 melanoma): 15.9 µM
TGI (UACC-257 melanoma): 29.4 µM
GI50 (UACC-62 melanoma): 11.1 µM
TGI (UACC-62 melanoma): 23.1 µM
GI50 (UO-31 renal): 10.5 µM
TGI (UO-31 renal): 22.2 µM

CC1=C2C(=C[C@@](C)(CO)[C@@H]2OC(=O)N(C)CCN(C)C(=O)OC(C)(C)C)C(=O)[C@](C)(O)C12CC2
GI50 (786-0 renal): 11.6 µM
TGI (786-0 renal): 37.8 µM
GI50 (A498 renal): 8.8 µM
TGI (A498 renal): 20.1 µM
GI50 (A549 NSCLC): 5.88 µM
TGI (A549 NSCLC): > 50 µM
GI50 (ACHN renal): 2.6 µM
TGI (ACHN renal): 32.6 µM
GI50 (BT-549 breast): 6.61 µM
TGI (BT-549 breast): 20.6 µM
GI50 (CCRF-CEM leukemia): 18.8 µM
TGI (CCRF-CEM leukemia): > 50 µM
GI50 (COLO 205 colon): 5.27 µM
TGI (COLO 205 colon): 14.3 µM
GI50 (DU-145 prostate): 1.78 µM
TGI (DU-145 prostate): 32.4 µM
GI50 (EKVX NSCLC): 10.7 µM
TGI (EKVX NSCLC): 29.1 µM
GI50 (HCC-2998 colon): 8.3 µM
TGI (HCC-2998 colon): 26.2 µM
GI50 (HCT-116 colon): 2.76 µM
TGI (HCT-116 colon): > 50 µM
GI50 (HCT-15 colon): 3.98 µM
TGI (HCT-15 colon): > 50 µM
GI50 (HL-60(TB) leukemia): 2.3 µM
TGI (HL-60(TB) leukemia): 46.4 µM
GI50 (HOP-92 NSCLC): 8.08 µM
TGI (HOP-92 NSCLC): 25.1 µM
GI50 (HS 578T breast): 15.3 µM
TGI (HS 578T breast): > 50 µM
GI50 (HT29 colon): 2.32 µM
TGI (HT29 colon): > 50 µM
GI50 (IGROV1 ovarian): 1.97 µM
TGI (IGROV1 ovarian): 18.8 µM
GI50 (K-562 leukemia): 21.4 µM
TGI (K-562 leukemia): > 50 µM
GI50 (KM12 colon): 9.9 µM
TGI (KM12 colon): > 50 µM
GI50 (LOX IMVI melanoma): 12.2 µM
TGI (LOX IMVI melanoma): > 50 µM
GI50 (M14 melanoma): 6.36 µM
TGI (M14 melanoma): 20.8 µM
GI50 (MCF7 breast): 3.35 µM
TGI (MCF7 breast): > 50 µM
GI50 (MDA-MB-231 breast): 9.64 µM
TGI (MDA-MB-231 breast): 39.3 µM
GI50 (MDA-MB-435): 9.74 µM
TGI (MDA-MB-435): 23.1 µM
GI50 (MOLT-4 leukemia): 31.5 µM
TGI (MOLT-4 leukemia): > 50 µM
GI50 (NCI-H226 lung): 11.7 µM
TGI (NCI-H226 lung): 34.7 µM
GI50 (NCI-H23 lung): 2.08 µM
TGI (NCI-H23 lung): 15.9 µM
GI50 (NCI-H460 lung): 1.45 µM
TGI (NCI-H460 lung): 5.42 µM
GI50 (NCI-H522 lung): 6.27 µM
TGI (NCI-H522 lung): 25.2 µM
GI50 (NCI/ADR-RES ovarian): 3.05 µM
TGI (NCI/ADR-RES ovarian): 23.7 µM
GI50 (OVCAR-3 ovarian): 2.31 µM
TGI (OVCAR-3 ovarian): 21 µM
GI50 (OVCAR-4 ovarian): 4.68 µM
TGI (OVCAR-4 ovarian): 22.6 µM
GI50 (OVCAR-5 ovarian): 2.67 µM
TGI (OVCAR-5 ovarian): > 50 µM
GI50 (OVCAR-8 ovarian): 6.51 µM
TGI (OVCAR-8 ovarian): 45.7 µM
GI50 (PC-3 prostate): 7.19 µM
TGI (PC-3 prostate): 28.6 µM
GI50 (RPMI-8226 leukemia): 5.83 µM
TGI (RPMI-8226 leukemia): 43.8 µM
GI50 (RXF 393 renal): 1.22 µM
TGI (RXF 393 renal): 4.06 µM
GI50 (SF-268 CNS): 1.78 µM
TGI (SF-268 CNS): 18.7 µM
GI50 (SF-295 CNS): 1.8 µM
TGI (SF-295 CNS): 33.1 µM
GI50 (SF-539 CNS): 7.92 µM
TGI (SF-539 CNS): 21.2 µM
GI50 (SK-MEL-2 melanoma): 7.63 µM
TGI (SK-MEL-2 melanoma): 17.3 µM
GI50 (SK-MEL-28 melanoma): 9.83 µM
TGI (SK-MEL-28 melanoma): 26.5 µM
GI50 (SK-MEL-5 melanoma): 8.84 µM
TGI (SK-MEL-5 melanoma): 16.4 µM
GI50 (SK-OV-3 ovarian): 6.93 µM
TGI (SK-OV-3 ovarian): 23 µM
GI50 (SN12C renal): 11.1 µM
TGI (SN12C renal): > 50 µM
GI50 (SNB-19 CNS): 10.9 µM
TGI (SNB-19 CNS): > 50 µM
GI50 (SNB-75 CNS): 5.29 µM
TGI (SNB-75 CNS): 11.8 µM
GI50 (SR leukemia): 2.39 µM
TGI (SR leukemia): > 50 µM
GI50 (SW-620 colon): 12.8 µM
TGI (SW-620 colon): > 50 µM
GI50 (T-47D breast): 5.05 µM
TGI (T-47D breast): 35.2 µM
GI50 (TK-10 renal): 13.6 µM
TGI (TK-10 renal): 35.2 µM
GI50 (U251 CNS): 5.25 µM
TGI (U251 CNS): 46.1 µM
GI50 (UACC-257 melanoma): 10.1 µM
TGI (UACC-257 melanoma): 26.3 µM
GI50 (UACC-62 melanoma): 8.33 µM
TGI (UACC-62 melanoma): 17.8 µM
GI50 (UO-31 renal): 2.17 µM
TGI (UO-31 renal): 14.9 µM
